Experiments:
[1] = test system: HCV replicons (NS3-NS5B regions of HCV type Ib) in Huh-7 luc/neo cells; test: HCV replicon assay (Huh-Luc luciferase reporter); assay type: cell-based; details: Hepatitis C virus, Huh-7, 72 h; Huh-Luc replicon cells, three days incubation, luciferase activity; read-out: EC50
Method: The in vitro antiviral activity against HCV of the compounds of formula (I) was tested in a cellular HCV replicon system based on Lohmann et al. (1999) Science 285:110-113, with the further modifications described by Krieger et al. (2001) Journal of Virology 75: 4614-4624, which is further exemplified in the examples section. This model, while not a complete infection model for HCV, is widely accepted as the most robust and efficient model of autonomous HCV RNA replication currently available. […] It will be appreciated that it is important to distinguish between compounds that specifically interfere with HCV functions from those that exert cytotoxic or cytostatic effects in the HCV replicon model, and as a consequence cause a decrease in HCV RNA or linked reporter enzyme concentration. Assays are known in the field for the evaluation of cellular cytotoxicity based for example on the activity of mitochondrial enzymes using fluorogenic redox dyes such as resazurin. Furthermore, cellular counter screens exist for the evaluation of non-selective inhibition of linked reporter gene activity, such as firefly luciferase. Appropriate cell types can be equipped by stable transfection with a luciferase reporter gene whose expression is dependent on a constitutively active gene promoter, and such cells can be used as a counter-screen to eliminate non-selective inhibitors.
The compounds of formula (I) were examined for activity in the inhibition of HCV RNA replication in a cellular assay. […] The cellular assay was based on a bicistronic expression construct, as described by Lohmann et al. (1999) Science vol. 285 pp. 110-113 with modifications described by Krieger et al. (2001) Journal of Virology 75: 4614-4624, in a multi-target screening strategy. In essence, the method was as follows.
The assay utilized the stably transfected cell line Huh-7 luc/neo (hereafter referred to as Huh-Luc). This cell line harbors an RNA encoding a bicistronic expression construct comprising the wild type NS3-NS5B regions of HCV type Ib translated from an Internal Ribosome Entry Site (IRES) from encephalomyocarditis virus (EMCV), preceded by a reporter portion (FfL-luciferase), and a selectable marker portion (neo^R, neomycine phosphotransferase). The construct is bordered by 5′ and 3′ NTRs (non-translated regions) from HCV type Ib. Continued culture of the replicon cells in the presence of G418 (neo^R) is dependent on the replication of the HCV RNA. The stably transfected replicon cells that express HCV RNA, which replicates autonomously and to high levels, encoding inter alia luciferase, are used for screening the antiviral compounds.
The replicon cells were plated in 384 well plates in the presence of the test and control compounds which were added in various concentrations. Following an incubation of three days, HCV replication was measured by assaying luciferase activity (using standard luciferase assay substrates and reagents and a Perkin Elmer ViewLux™ ultraHTS microplate imager). Replicon cells in the control cultures have high luciferase expression in the absence of any inhibitor. The inhibitory activity of the compound on luciferase activity was monitored on the Huh-Luc cells, enabling a dose-response curve for each test compound.

[2] = In vitro metabolic blocking by ritonavir in human liver microsomes; assay type: in vitro ADME; details: 3 μM test compound, human liver microsomes 1 mg/ml, 37° C., % of initial concentration
Method: Compound nr 11 of Table 1 was tested in a metabolic blocking experiment using 3 μM test compound together with 10 μM ritonavir acting as booster.
The test compound and ritonavir were added to human liver microsomes (protein concentration 1 mg/ml) suspended in potassium phosphate buffer (pH=7.4), to get final reaction mixture concentrations of 3 μM test compound and 10 μM ritonavir. In the non-boosted parallel reactions, ritonavir was not added. Boiled human liver microsomes were used for blank experiments. After addition (in a 1:3 ratio) of a cofactor mixture consisting of β-nicotinamide adenine dinucleotide phosphate (β-NADP, 0.5 mg/ml, 653.2 μM), D-Glucose-6-phosphate (2 mg/ml, 7.1 mM), Glucose-6-phosphate dehydrogenase (1.5 U/ml) in 2% NaHCO3, the reaction mixture was incubated at 37° C. for 30 or 120 minutes after which the reaction was stopped by increasing the temperature to 95° C. Test compound concentrations were determined using HPLC-MS.
Values are percentages of the test compound detected after the indicated incubation times as compared to the initial test compound concentration. Each value is the mean of the results of two independent experiments.

Row | SMILES | EC50 [1] [nM] | further results
1 | COc1ccc2c(O[C@@H]3C[C@H]4C(=O)N[C@]5(C(=O)NS(=O)(=O)C6CC6)C[C@H]5/C=C\CCCCCCC(=O)N4C3)cc(-c3nc(C(C)C)cs3)nc2c1 [Compound 11, N-[[18-[2-[4-(isopropyl)thiazol-2-yl]-7-methoxyquinolin-4-yloxy]-2,15-dioxo-3,16-diazatricyclo[14.3.0.0^4,6]nonadec-7-en-4-yl]carbonyl](cyclopropyl)sulfonamide] | 17 | % Detected Compound ([2]; 30′ incubation, No Booster): 28%; % Detected Compound ([2]; 30′ incubation, with 10 μM ritonavir): 79%; % Detected Compound ([2]; 120′ incubation, No Booster): 0%; % Detected Compound ([2]; 120′ incubation, with 10 μM ritonavir): 91%
2 | COc1ccc2c(O[C@@H]3C[C@H]4C(=O)N[C@]5(C(=O)O)C[C@H]5/C=C\CCCCCC(=O)N4C3)cc(-c3nc(C(C)C)cs3)nc2c1C [Compound 58, 17-[2-(4-isopropylthiazol-2-yl)-7-methoxy-8-methylquinolin-4-yloxy]-2,14-dioxo-3,15-diazatricyclo[13.3.0.0^4,6]octadec-7-ene-4-carboxylic acid] | 1600 | –
3 | COc1ccc2c(O[C@@H]3C[C@H]4C(=O)N[C@]5(C(=O)NS(=O)(=O)C6CC6)C[C@H]5/C=C\CCCCCC(=O)N4C3)cc(-c3nc(C(C)C)cs3)nc2c1C [Compound 59, N-[17-[2-(4-isopropylthiazol-2-yl)-7-methoxy-8-methylquinolin-4-yloxy]-2,14-dioxo-3,15-diazatricyclo[13.3.0.0^4,6]octadec-7-ene-4-carbonyl]-(cyclopropyl)sulfonamide] | 3 | –
4 | COc1ccc2c(O[C@@H]3C[C@H]4C(=O)N[C@]5(C(=O)NS(=O)(=O)C6(C)CC6)C[C@H]5/C=C\CCCCCC(=O)N4C3)cc(-c3nc(C(C)C)cs3)nc2c1C [Compound 60, N-[17-[2-(4-isopropylthiazol-2-yl)-7-methoxy-8-methylquinolin-4-yloxy]-2,14-dioxo-3,15-diazatricyclo[13.3.0.0^4,6]octadec-7-ene-4-carbonyl]-(1-methylcyclopropyl)sulfonamide] | 14 | –
5 | COc1ccc2c(O[C@@H]3C[C@H]4C(=O)N[C@]5(C(=O)NS(=O)(=O)C6(C)CC6)C[C@H]5/C=C\CCCCCC(=O)N4C3)cc(-c3nc(C(C)C)cs3)nc2c1Cl [Compound 61, N-[17-[8-chloro-2-(4-isopropylthiazol-2-yl)-7-methoxyquinolin-4-yloxy]-2,14-dioxo-3,15-diazatricyclo[13.3.0.0^4,6]octadec-7-ene-4-carbonyl]-(1-methylcyclopropyl)sulfonamide] | 1 | –
6 | COc1ccc2c(O[C@@H]3C[C@H]4C(=O)N[C@]5(C(=O)NS(=O)(=O)C6CC6)C[C@H]5/C=C\CCCCCC(=O)N4C3)cc(-c3nc(C(C)C)cs3)nc2c1 [Compound 63, N-[17-[2-(4-isopropylthiazol-2-yl)-7-methoxyquinolin-4-yloxy]-2,14-dioxo-3,15-diazatricyclo[13.3.0.0^4,6]octadec-7-ene-4-carbonyl]-(cyclopropyl)sulfonamide] | 24 | –

— patent publication US7989471B2, “Macrocyclic inhibitors of hepatitis C virus” (Tibotec Pharmaceuticals Ltd., priority 2005, dated 2011)
